Earlier results, collected in patent US20110111002A1, “TRANSPORT AND DELIVERY OF GLUTATHIONE INTO HUMAN CELLS USING GOLD NANOPARTICLES” (priority 2009, published 2011).

Columns and labels:
[1] = humans, injectable
cell type tested = settings: irrespective of the cell type tested
[2] = test system: intracellular glutathione concentration; settings: versus the three component amino acids (precursors)

## O=C([O-])CC([S-])C(=O)[O-].[Au+].[Na+].[Na+] (stereo not drawn) [Myochrisine]
[1]
  tolerance of high concentrations: excellent tolerance

## O=C([O-])CC([S-])C(=O)[O-].[Au+].[Na+].[Na+] (stereo not drawn) [Tauredon]
Cell type tested
  toxicity: comparatively nontoxic

## N[C@@H](CCC(=O)N[C@@H](CS)C(=O)NCC(=O)O)C(=O)O [GSH, L-gammaglutamyl-L-cysteinylglycine]
[2]
  efficiency in raising the intracellular glutathione concentration compared to the precursors: three times more efficient
